In patent US20070149485A1, “SELECTED DOSAGE FOR THE TREATMENT OF CARDIOVASCULAR AND RELATED PATHOLOGIES” (Medicure International, Inc., priority 2005, published 2007):

Legend:
[1] = tested on: high-risk patients undergoing CABG surgery with cardiopulmonary bypass; test: Oral P5P in high-risk patients undergoing CABG surgery (randomized, double-blind, placebo-controlled): myocardial infarction and combined incidents to POD 30; type: in vivo, human; conditions: for Frequencies of myocardial infarction, cerebral infarction, or death, at POD 30: Myocardial infarction, cerebral infarction or death / Frequencies of myocardial infarction, cerebral infarction, or death, at POD 30: No myocardial infarction, cerebral infarction or death / Frequencies of myocardial infarction at POD 30: Myocardial Infarction / Frequencies of myocardial infarction at POD 30: No myocardial infarction: number of patients (% of group); for reducing post-CABG morbidity and mortality: CK-MB 100 ng/ml (post-hoc) as indicator; for reducing instances of myocardial infarction: vs placebo
From the text: A randomized, double-blind placebo-controlled, dose-ranging, parallel-arrn multi-center study was undertaken, on high-risk patients undergoing CABG surgery with cardiopulmonary bypass.
Patients were identified as “high risk” if they had two or more of the following risk factors: • Age greater than 65 years; • Current smoker;
Approximately 900 high risk pre-CABG patients in 42 different treatment centers in North America were screened and randomized to three groups of approximately 300 patients each, prior to their bypass surgery, as follows. Patients were either placed in a control group (placebo), treated orally with 250 mg/day of P5P (250 mg/day), or treated orally with 750 mg/day of P5P (750 mg/day).
The first dose of study medication was administered at 3-10 hours prior to CABG surgery. In the event of surgery delay or rescheduling, a second pre-operative dose of P5P was administered so that all patients received study medication 3-10 hours before surgery. Treatment continued for 30 days after surgery (post operative day (POD) 30). Patients received follow-up evaluations up to and including postoperative day (POD) 4, on POD 30 and on POD 90.
Patients were measured for combined incidence of cardiovascular death, nonfatal myocardial infarction (MI), and nonfatal cerebral infarction up to and including post-operative day 30 (POD 30). Patients were also measured for nonfatal myocardial infarction alone. All deaths without an identifiable non-cardiovascular cause were considered of cardiovascular origin.
Cerebral infarction (stroke) was defined clinically as any new sudden onset focal neurological deficit lasting at least 24 hours as assessed by a neurologist and after neuroimaging (computed tomography [CT] brain scan or magnetic resonance imaging [MRI]) had excluded an intracerebral hemorrhage. All patients suspected of having a stroke or transient ischemic attack (TIA) received a neurological examination (conducted by a neurologist or internist with expertise in cerebral vascular disease) within 24 hours of onset of symptoms. All patients suspected of having a stroke were submitted to cerebral imaging.
When determining whether a patient had myocardial infarction, the following definitions were used: • A peak creatine kinase—myocardial band (CK-MB) above a certain threshold. Since different experts and different prior art clinical trials used different cut-offs for this threshold, three different thresholds were used to determine whether a patient had myocardial infarction—a post-hoc cut off threshold of 100 ng/ml (a peak CK-MB of 100 ng/ml or greater on days up to and including POD 4), a post-hoc cut off threshold of 70 ng/ml, and a predefined cut off threshold of 50 ng/ml was used; • A new q-wave evidence of myocardial infarction along with CK-MB of 35 ng/ml or above on days up to and including POD 4; • A peak CK-MB of 5× ULN (25 ng/ml) or above occurring after POD 4; • A new q-wave evidence of myocardial infarction that was not present at POD 4; or • A q-wave or non-q-wave myocardial infarction as identified by the investigator and confirmed by the Clinical Endpoint Committee. A. Myocardial Infarction Rates CK-MB Cut-off of 100 ng/ml

[2] = in water, alcohol, and ether; cited from earlier work
[3] = tested on: animal model of ischemic brain injury; conditions: animal model of ischemic brain injury (Wang, et al, J. Neurosurg. 2005); cited from earlier work
[4] = oral 250 mg/day, CK-MB cut-off 50 ng/ml
[5] = oral 250 mg/day, CK-MB cut-off 50 ng/ml (predefined)
[6] = oral 250 mg/day, CK-MB cut-off 70 ng/ml
[7] = oral 250 mg/day, CK-MB cut-off 70 ng/ml (post-hoc)
[8] = oral 250 mg/day, CK-MB cut-off 100 ng/ml
[9] = oral 250 mg/day, CK-MB cut-off 100 ng/ml (post-hoc)
[10] = oral 750 mg/day, CK-MB cut-off 50 ng/ml
[11] = oral 750 mg/day, CK-MB cut-off 50 ng/ml (predefined)
[12] = oral 750 mg/day, CK-MB cut-off 70 ng/ml
[13] = oral 750 mg/day, CK-MB cut-off 70 ng/ml (post-hoc)
[14] = oral 750 mg/day, CK-MB cut-off 100 ng/ml
[15] = oral 750 mg/day, CK-MB cut-off 100 ng/ml (post-hoc)

## Cc1ncc(COP(=O)(O)O)c(C=O)c1O [P5P, 3-hydroxy-2-methyl-5-[(phosphonooxy)methyl]-4-pyridine-carboxaldehyde]
[1]; [4]
  Frequencies of myocardial infarction, cerebral infarction, or death, at POD 30: Myocardial infarction, cerebral infarction or death: 65 (21.6%)
  Frequencies of myocardial infarction, cerebral infarction, or death, at POD 30: No myocardial infarction, cerebral infarction or death: 236 (78.4%)
  reducing total incidents (myocardial infarction, cerebral infarction, or death): highly effective
  reducing instances of myocardial infarction: highly effective
[1]; [5]
  Frequencies of myocardial infarction at POD 30: Myocardial Infarction: 59 (19.6%)
  Frequencies of myocardial infarction at POD 30: No myocardial infarction: 242 (80.4%)
[1]; [6]
  Frequencies of myocardial infarction, cerebral infarction, or death, at POD 30: Myocardial infarction, cerebral infarction or death: 41 (13.6%)
  Frequencies of myocardial infarction, cerebral infarction, or death, at POD 30: No myocardial infarction, cerebral infarction or death: 260 (86.4%)
  reducing instances of myocardial infarction: highly effective
[1]; [7]
  Frequencies of myocardial infarction at POD 30: Myocardial Infarction: 34 (11.3%)
  Frequencies of myocardial infarction at POD 30: No myocardial infarction: 267 (88.7%)
[1]; [8]
  Frequencies of myocardial infarction, cerebral infarction, or death, at POD 30: Myocardial infarction, cerebral infarction or death: 31 (10.3%)
  Frequencies of myocardial infarction, cerebral infarction, or death, at POD 30: No myocardial infarction, cerebral infarction or death: 270 (89.7%)
  reducing instances of myocardial infarction: highly effective
[1]; [9]
  Frequencies of myocardial infarction at POD 30: Myocardial Infarction: 23 (7.6%)
  Frequencies of myocardial infarction at POD 30: No myocardial infarction: 278 (92.4%)
[1]; [10]
  Frequencies of myocardial infarction, cerebral infarction, or death, at POD 30: Myocardial infarction, cerebral infarction or death: 77 (25.6%)
  Frequencies of myocardial infarction, cerebral infarction, or death, at POD 30: No myocardial infarction, cerebral infarction or death: 224 (74.4%)
  reducing total incidents (myocardial infarction, cerebral infarction, or death): did not reduce
  reducing instances of myocardial infarction: not effective
[1]; [11]
  Frequencies of myocardial infarction at POD 30: Myocardial Infarction: 71 (23.6%)
  Frequencies of myocardial infarction at POD 30: No myocardial infarction: 230 (76.4%)
[1]; [12]
  Frequencies of myocardial infarction, cerebral infarction, or death, at POD 30: Myocardial infarction, cerebral infarction or death: 47 (15.6%)
  Frequencies of myocardial infarction, cerebral infarction, or death, at POD 30: No myocardial infarction, cerebral infarction or death: 254 (84.4%)
  reducing total incidents (myocardial infarction, cerebral infarction, or death): highly effective
[1]; [13]
  Frequencies of myocardial infarction at POD 30: Myocardial Infarction: 38 (12.6%)
  Frequencies of myocardial infarction at POD 30: No myocardial infarction: 263 (87.4%)
[1]; [14]
  Frequencies of myocardial infarction, cerebral infarction, or death, at POD 30: Myocardial infarction, cerebral infarction or death: 34 (11.3%)
  Frequencies of myocardial infarction, cerebral infarction, or death, at POD 30: No myocardial infarction, cerebral infarction or death: 267 (88.7%)
  reducing total incidents (myocardial infarction, cerebral infarction, or death): highly effective
  reducing instances of myocardial infarction: highly effective
[1]; [15]
  Frequencies of myocardial infarction at POD 30: Myocardial Infarction: 23 (7.6%)
  Frequencies of myocardial infarction at POD 30: No myocardial infarction: 278 (92.4%)
[1]; oral 250 mg/day
  reducing post-CABG morbidity and mortality: effective
[1]; oral 250 mg/day, CK-MB cut-off 70 ng/ml, better than 750 mg/day
  reducing total incidents (myocardial infarction, cerebral infarction, or death): highly effective
[1]; oral 250 mg/day, CK-MB cut-off 100 ng/ml, better than 750 mg/day
  reducing total incidents (myocardial infarction, cerebral infarction, or death): highly effective
[1]; oral 750 mg/day
  reducing post-CABG morbidity and mortality: effective
[1]; oral 750 mg/day, CK-MB cut-off 70 ng/ml, not as effective as 250 mg/day
  reducing instances of myocardial infarction: effective
[1]; oral, CK-MB level greater than 50 ng/ml (pre-defined) or 70 ng/ml (post-hoc) as indicator
  effectiveness at reducing post-CABG morbidity and mortality, 250 mg/day compared with 750 mg/day: higher effectiveness
[2]
  solubility: essentially insoluble
[3]
  neuroprotective effects: neuroprotective effects
